The results in this text go back to ChEMBL document CHEMBL2202954, “The effect of PLC-γ2 inhibitors on the growth of human tumour cells” (2012).

Common to all, as to type: functional
Assay [1] relates to BT-549. The assay is described as follows: Cytotoxicity against human BT549 cells assessed as cellular growth at 10 uM by SRB assay.
The subject of assay [2] is CCRF-CEM. Put plainly: Cytotoxicity against human CCRF-CEM cells assessed as cellular growth at 10 uM by SRB assay.
The test system of assay [3] is HT-29. The assay is described as follows: Cytotoxicity against human HT-29 cells assessed as cellular growth at 10 uM by SRB assay. For orientation: In SRB staining, fixed cells bind dye roughly in proportion to their protein.
Assay [4] deals with SW-620. Put plainly: Cytotoxicity against human SW620 cells assessed as cellular growth at 10 uM by SRB assay.
Assay [5] deals with NCI-H460. The assay is described as follows: Cytotoxicity against human NCI-H460 cells assessed as cellular growth at 10 uM by SRB assay.
Assay [6] has as its system A498. The assay is described as follows: Cytotoxicity against human A498 cells assessed as cellular growth at 10 uM by SRB assay.
The subject of assay [7] is COLO 205. The assay is described as follows: Cytotoxicity against human COLO205 cells assessed as cellular growth at 10 uM by SRB assay.
For assay [8], the system named is MOLT-4. Put plainly: Cytotoxicity against human MOLT4 cells assessed as cellular growth at 10 uM by SRB assay.
Assay [9] relates to MCF7. Put plainly: Cytotoxicity against human MCF7 cells assessed as cellular growth at 10 uM by SRB assay.
Assay [10] deals with PC-3. The assay is described as follows: Cytotoxicity against human PC3 cells assessed as cellular growth at 10 uM by SRB assay.
In assay [11] the test system is HCC 2998. Put plainly: Cytotoxicity against human HCC2998 cells assessed as cellular growth at 10 uM by SRB assay.
The test system of assay [12] is OVCAR-8. Put plainly: Cytotoxicity against human OVCAR8 cells assessed as cellular growth at 10 uM by SRB assay.
Assay [13] concerns SNB-75. The assay is described as follows: Cytotoxicity against human SNB75 cells assessed as cellular growth at 10 uM by SRB assay.
Assay [14] concerns SK-MEL-2. Put plainly: Cytotoxicity against human SK-MEL-2 cells assessed as cellular growth at 10 uM by SRB assay.
Assay [15] concerns U-251. The assay is described as follows: Cytotoxicity against human U251 cells assessed as cellular growth at 10 uM by SRB assay.
The test system of assay [16] is MDA-MB-231. The assay is described as follows: Cytotoxicity against human MDA-MB-231 cells assessed as cellular growth at 10 uM by SRB assay.
Assay [17] relates to SNB-19. Put plainly: Cytotoxicity against human SNB19 cells assessed as cellular growth at 10 uM by SRB assay.
Assay [18] concerns SF-539. The assay is described as follows: Cytotoxicity against human SF539 cells assessed as cellular growth at 10 uM by SRB assay.
For assay [19], the system named is NCI-H226. Put plainly: Cytotoxicity against human NCI-H226 cells assessed as cellular growth at 10 uM by SRB assay.
The subject of assay [20] is UACC-257. The assay is described as follows: Cytotoxicity against human UACC257 cells assessed as cellular growth at 10 uM by SRB assay.

Consider `N#Cc1ccc(NC(=O)c2sc3nc4c(cc3c2N)C(=O)CCC4)cc1`, for which the Activity in assay [1] is listed as 108.43%; in assay [2], 99.79%; in [3], 84.91%; in [4], 98.14%; in assay [5], 85.91%; in assay [6], 79.55%. Moreover, the Activity came to 108.98% in assay [7]; 114.77% in assay [8]; 97.4% in [9]; 106.64% in assay [10]; 99.15% in assay [11]; 104.55% in assay [12]. The Activity in assay [13] stood at 113.44%; in assay [14], 83%; in [15], 106.08%; in assay [16], 109.01%; in [17], 101.84%; in [18] it was 99.77%. Also, the Activity turned out to be 93.7% in assay [19] and 105.99% in [20].
Consider `CC1(C)CC(=O)c2cc3c(N)c(C(=O)Nc4ccc(F)cc4)sc3nc2C1`, for which the Activity came to 111.85% in [1]; 107.91% in assay [2]; 110.56% in assay [3]; 106.24% in [4]; 104.48% in assay [5]; 87.2% in assay [6]. For the same compound, the Activity in assay [7] is recorded as 133.12%; in [8], 121.66%; in assay [9], 105.49%; in assay [10], 110.47%; in assay [11], 105.43%; in assay [12], 108.67%. Moreover, the Activity was found to be 114.82% in assay [13]; 122.76% in [14]; 101.59% in [15]; 112.36% in assay [16]; 131.09% in [17]; 96.07% in assay [18]. Also, the Activity was 102.68% in [19] and 107.39% in assay [20].
Take `Cc1c(OCC(=O)c2ccccc2)ccc2c1oc(=O)c1ccccc12`: the Activity is given as 120.42% in [1]; 95.27% in assay [2]; 100.17% in assay [3]; 95.18% in assay [4]; 100.87% in assay [5]; 91.47% in [6]. The Activity in assay [7] came to 117.2%; in [8] it was 90.5%; in [9], 102.82%; in [10], 90%; in assay [11], 117.13%; in [12], 99.11%. Also, the Activity in [13] was found to be 122.93%; in assay [14] it was 125.14%; in assay [15], 98.92%; in [16] it was 104.28%; in assay [17], 101.61%; in assay [18] it was 104.56%. For the same compound, the Activity came out at 99.25% in assay [19] and 111.79% in assay [20].
As to `Nc1c(C(=O)Nc2ccccc2)sc2nc3c(cc12)C(=O)CCC3`, the Activity stood at 65.66% in assay [1]; 16.76% in assay [2]; 4.34% in [3]; 27.25% in [4]; 12.88% in assay [5]; 37.32% in [6]. Moreover, the Activity in assay [7] was -18.41%; in [8], 43.43%; in assay [9], 19.61%; in assay [10], 21.62%; in [11], 21.89%; in assay [12], 39.92%. In addition, the Activity in assay [13] is 12.41%; in assay [14] it was 38.68%; in assay [15], 25.69%; in assay [16], 52.08%; in assay [17] it was 36.05%; in assay [18], 0.84%. For the same compound, the Activity in assay [19] is recorded as 68%; in [20] it was 52.83%.
Regarding `O=C(Nc1ccc2oc(=O)ccc2c1)c1ccc(-c2ccc(Br)cc2)o1`, the Activity is recorded as 118.79% in assay [1]; 103.74% in [2]; 108.43% in assay [3]; 107.9% in [4]; 100.9% in assay [5]; 101.8% in assay [6]. The Activity in assay [7] came out at 124.46%; in assay [8], 96.93%; in assay [9], 98.67%; in assay [10], 111.02%; in assay [11], 112.96%; in assay [12], 101.05%. The Activity in [13] amounted to 104.41%; in assay [14], 121.49%; in assay [15], 98.16%; in assay [16], 104.85%; in assay [17], 105.93%; in assay [18], 101.06%. The Activity in [19] is 112.35%; in [20] it was 114.76%.
For the compound `O=S(=O)(Oc1ccc(-c2cnc3ccccc3n2)cc1)c1ccc2ccccc2c1`, the Activity in [1] was determined as 122.04%; in assay [2], 90.35%; in [3], 82.27%; in assay [4] it was 100.52%; in assay [5], 96.28%; in [6], 85.21%. Further, the Activity in assay [7] is 121.42%; in assay [8] it was 89.91%; in assay [9], 103.49%; in assay [10] it was 87.31%; in [11], 107.48%; in assay [12], 110.71%. Further, the Activity is given as 119.77% in assay [13]; 107.17% in assay [14]; 104.05% in assay [15]; 103.12% in assay [16]; 99.88% in assay [17]; 119.65% in assay [18]. Besides, the Activity is 98.79% in assay [19] and 114.11% in assay [20].
Regarding `Cc1ccc(NC(=O)c2sc3nc(-c4cccs4)ccc3c2N)cc1C`, the Activity in [1] stood at 133.54%; in assay [2], 97.34%; in assay [3], 94.6%; in assay [4], 101.23%; in assay [5], 98.65%; in assay [6], 88.5%. Also, the Activity is on record as 112.33% in assay [7]; 80.3% in assay [8]; 109.1% in [9]; 101.43% in assay [10]; 105.35% in [11]; 102.12% in assay [12]. The Activity is 111.99% in [13]; 82.1% in assay [14]; 101.86% in [15]; 116.18% in assay [16]; 111.2% in assay [17]; 118.53% in [18]. Besides, the Activity in [19] turned out to be 107.93%; in assay [20] it was 106.65%.
For `Cc1ccc(Cl)cc1NC(=O)c1sc2nc3c(cc2c1N)C(=O)CCC3`, the Activity in assay [1] is 93.5%; in assay [2] it was 49.18%; in [3], 28.78%; in assay [4] it was 36.54%; in [5] it was 28.15%; in assay [6], 51.16%. Moreover, the Activity in assay [7] is given as 39.71%; in assay [8], 84.85%; in assay [9] it was 35.55%; in assay [10], 55.81%; in [11] it was 74.86%; in [12], 89.97%. Moreover, the Activity came out at 48.01% in assay [13]; 64.51% in assay [14]; 59.13% in [15]; 80.03% in assay [16]; 68.14% in assay [17]; 47.69% in [18]. Further, the Activity in [19] is 88.29%; in [20], 44.88%.
Consider `CC1(C)CCc2cc(-c3ccn(S(=O)(=O)c4ccc(Cl)cc4)n3)ccc2O1`, for which the Activity is on record as 88.83% in assay [1]; 64.16% in assay [2]; 70.86% in [3]; 87.74% in assay [4]; 73.79% in assay [5]; 70.82% in assay [6]. The Activity is listed as 116.9% in assay [7]; 65.38% in [8]; 71.27% in assay [9]; 56.8% in [10]; 94.3% in assay [11]; 86.61% in assay [12]. Besides, the Activity was 92.32% in assay [13]; 92.25% in assay [14]; 74.2% in assay [15]; 76.35% in [16]; 100.09% in assay [17]; 101.35% in assay [18]. In addition, the Activity in [19] is listed as 74.42%; in assay [20] it was 64.88%.
